US8067394B2, “Synthesis and biological activities of new tricyclic-bis-enones (TBEs)” (Trustees of Dartmouth College, priority 2006, dated 2011)
“Also recorded” adds a separate entry of the source.

Assays:
HO-1 = assay: Induction of HO-1 in RAW cells (Western blot); type: cell-based, mouse; details: FIG. 9; 30-300 nM, 24 hours
[1] = tested on: NO production in RAW cells; assay: Inhibition of NO production in RAW cells stimulated with interferon-γ; type: cell-based, mouse
U937 cells = assay: Apoptosis in U937 cells (Annexin V); type: cell-based, human; details: FIG. 8, 24 hours
Experimental: FIG. 8. Induction of apoptosis in U937 cells by TBEs. Cells were treated with TBEs and triterpenoids for 24 hours.
Cells were treated for 24 hours.

heme oxygenase-1 [2] = assay: Induction of heme oxygenase-1 in stomach of CD-1 mice after gavage; type: in vivo; details: FIG. 12; male CD-1 mice, 1 μmol by gavage in DMSO, six hours
Description: FIG. 12. […] Male CD-1 mice (3 per group) were gavaged with 1 μmol TBEs, CDDO or CDDO-Im in DMSO. Six hours later, stomachs were harvested and homogenized. Lysates were separated by SDS-PAGE, probed with HO-1 antibodies, and developed by ECL.

[3] = tested on: A549 human lung cancer cells; assay: Apoptosis in A549 human lung cancer cells; type: cell-based; details: FIG. 7; 24 h
Experimental: FIG. 7. TBE-31 induces apoptosis in A549 human lung cancer cells. Cells were treated with TBE-31 for 24 h. A549 is a classic human lung cancer cell line.
Cells were treated for 24 h. A549 is a classic human lung cancer cell line.

heme oxygenase-1 [4] = assay: Induction of heme oxygenase-1 in liver of CD-1 mice after gavage; type: in vivo
Experimental: FIG. 3. […] CD-1 mice (2 per group) were gavaged with TBEs or CDDO-Im in DMSO. After 6 h, livers were harvested and homogenized. Lysates were separated by SDS-PAGE, probed with HO-1 antibodies, and developed by ECL.
FIG. 11. […] Male CD-1 mice (3 per group) were gavaged with 1 μmol TBEs, CDDO or CDDO-Im in DMSO. Six hours later, livers were harvested and homogenized. Lysates were separated by SDS-PAGE, probed with HO-1 antibodies, and developed by ECL.
CD-1 mice (2 per group) were gavaged with TBEs or CDDO-Im in DMSO. After 6 h, livers were harvested and homogenized. Lysates were separated by SDS-PAGE, probed with HO-1 antibodies, and developed by ECL.

[5] = tested on: U937 human leukemia cells; assay: Proliferation of U937 human leukemia cells (Coulter counter); type: cell-based; details: FIG. 1; treated 3-4 days
Experimental: (§1) FIG. 1. TBEs inhibit proliferation of RMPI 8226 human myeloma cells and U937 human leukemia cells. Cells were treated with TBEs and triterpenoids for 3-4 days and counted by Coulter counter. […] CDDO is presently in clinical trial for treatment of acute myelogenous leukemia. TP-235 is the imidazolide derivative of CDDO.
(§2) Cells were treated with triterpenoids and TBEs for 3-4 days and counted by Coulter counter. […] CDDO is presently in clinical trial for treatment of acute myelogenous leukemia. TP-235 is the imidazolide derivative of CDDO.

Jurkat cells = assay: Proliferation of Jurkat cells (Coulter counter); type: cell-based; details: FIG. 6; 3-4 days
Experimental: FIG. 6. TBEs inhibit proliferation of Jurkat cells. Cells were treated with TBEs and triterpenoids for 3-4 days and counted by Coulter counter. […] Thus, it is to be expected that TBEs may have useful activities in regulation of lymphocyte, as well as macrophage, function.
Cells were treated with TBEs for 3-4 days and counted by Coulter counter.

[6] = tested on: RMPI 8226 human myeloma cells; assay: Proliferation of RMPI 8226 human myeloma cells (Coulter counter); type: cell-based; details: FIG. 1; treated 3-4 days
Experimental: as §1, §2

heme oxygenase-1 [7] = assay: Induction of heme oxygenase-1 in U937 cells (Western blot); type: cell-based, human; details: FIG. 2; 0.1-1 μM, 7 hours
Experimental: FIG. 2. […] Cells were incubated with TBEs and triterpenoids (0.1-1 μM) for 7 hours. Total cell lysates were analyzed by SDS-PAGE, probed with an HO-1 antibody, and developed by ECL. […] None of the other TBEs that were tested provided significant induction of heme oxygenase.
Cells were incubated with triterpenoids or TBEs (0.1-1 μM) for 7 hours. Total cell lysates were analyzed by SDS-PAGE, probed with an HO-1 antibody, and developed by ECL. […] None of the other TBEs that were tested provided significant induction of heme oxygenase.

iNOS = assay: Inhibition of iNOS induction in RAW cells stimulated with IFN-γ (Western blot); type: cell-based, mouse; details: FIG. 5; IFNg 10 ng/ml, 24 hours
[8] = tested on: aflatoxin-induced tumorigenesis; set-up: species or system F344 rats; details: rat, in vivo
[9] = tested on: CD11b expression in U937 cells; assay: CD11b expression in U937 cells (FACS); type: cell-based, human; details: FIG. 4; 10-100 nM, 4 days
Experimental: FIG. 4. TBE-31 induces CD11b expression in U937 cells. Cells were incubated with CDDO-Im or TBE-31 (10-100 nM) for 4 days. CD11b expression was measured by FACS analysis. Induction of CD11b is a marker of leukemia cell differentiation.
Cells were incubated with CDDO-Im or TBE-31 (10-100 nM) for 4 days. CD11b expression was measured by FACS analysis. Induction of CD11b is a marker of leukemia cell differentiation.

C#CC12C=C(C#N)C(=O)C=C1C1(C)C=C(C#N)C(=O)C(C)(C)C1CC2 (racemic) [TBE-31, 10a-ethynyl-4b,8,8-trimethyl-3,7-dioxo-3,4b,7,8,8a,9,10,10a-octahydrophenanthrene-2,6-dicarbonitrile]
Induction of HO-1 in RAW cells (HO-1): higher inducer than CDDO-Im
IC50 ([1]; Mus musculus, Table 5, C-8a functionalized TBE-9 analogs, stimulated with interferon-γ, read-out: IC50 (nM), NO production in RAW cells): 1 nM
Potency for inhibition of NO production in RAW cells (in words) ([1]; RAW cells, interferon-γ): extremely potent at one nanomolar concentrations; also recorded: higher than CDDO and equal to TP-225
Induction of apoptosis in U937 cells (U937 cells): most active of the TBEs; also recorded: markedly more active than CDDO (TP-151)
Induction of heme oxygenase-1 in stomach (heme oxygenase-1 [2]): induces heme oxygenase-1 in stomach
Induction of apoptosis in A549 cells [3]: can induce both early and late apoptosis
Induction of heme oxygenase-1 in liver in vivo (heme oxygenase-1 [4]; FIG. 3, CD-1 mice, gavage in DMSO, livers after 6 h): orally active agent; also recorded: comparable to that found with CDDO-Imidazolide
Induction of heme oxygenase-1 in liver (heme oxygenase-1 [4]; FIG. 11, male CD-1 mice, 1 μmol by gavage in DMSO, six hours): potent inducer of heme oxygenase-1 in liver
Inhibition of proliferation of U937 human leukemia cells [5]: by far the most potent; also recorded: more potent than CDDO
Inhibition of proliferation of Jurkat cells (Jurkat cells): extremely active, more so than CDDO (TP-151)
Inhibition of proliferation of RMPI 8226 human myeloma cells [6]: by far the most potent; also recorded: equivalent to that of CDDO itself (TP-151)
Induction of heme oxygenase-1 in U937 cells (heme oxygenase-1 [7]): potent inducer of heme oxygenase; also recorded: markedly more potent than TP-151 (CDDO), and almost as potent as TP-235
Suppression of induction of iNOS in RAW 264.7 cells (iNOS): potent suppressor of induction of iNOS; also recorded: significantly more potent than CDDO, and almost as potent as CDDO-Imidazolide
Formation of preneoplastic (GST-P positive) foci in liver [8]: reduces the formation of preneoplastic foci
Induction of CD11b expression in U937 cells [9]: strongly induces CD11b at 100 nM; also recorded: comparable to that of CDDO-Im at 10 and 30 nM; also recorded: more potent than CDDO-Im at 100 nM
